Test results taken from BindingDB's records for PubMed 10900230 (University of Michigan, 2000).

Target: T1, Alpha-2A adrenergic receptor (Sus scrofa, UniProt P18871)
T1 sequence (P18871 whole entry): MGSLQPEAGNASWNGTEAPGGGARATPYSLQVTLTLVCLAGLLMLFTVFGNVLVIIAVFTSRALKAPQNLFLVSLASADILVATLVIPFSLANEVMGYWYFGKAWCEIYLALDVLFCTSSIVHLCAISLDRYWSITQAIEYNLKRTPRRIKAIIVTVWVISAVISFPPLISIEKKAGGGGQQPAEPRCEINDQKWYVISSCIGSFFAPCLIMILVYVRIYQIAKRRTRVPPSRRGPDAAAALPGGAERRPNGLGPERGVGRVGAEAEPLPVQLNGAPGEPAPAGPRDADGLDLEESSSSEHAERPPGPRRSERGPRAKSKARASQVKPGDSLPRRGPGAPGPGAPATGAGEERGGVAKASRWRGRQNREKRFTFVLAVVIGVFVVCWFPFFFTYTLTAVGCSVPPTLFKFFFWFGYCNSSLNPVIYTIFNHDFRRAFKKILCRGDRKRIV

Row | Compound | Ki [nM]
1 | Clc1cccc(Cl)c1N=C1NCCN1 [2-(2,6-dichloroanilino)-2-imidazoline] | 85.1
2 | Cc1cccc(C)c1N=C1NCCCS1 [(5,6-Dihydro-4H-[1,3]thiazin-2-yl)-(2,6-dimethyl-phenyl)-amine] | 3160
3 | CNCC(O)c1ccc(O)c(O)c1 (stereo unspecified) [EPINEPHRINE] | 646
4 | NC(N)=NN=Cc1c(Cl)cccc1Cl [Guanabenz] | 57.5
5 | Clc1cc(I)cc(Cl)c1N=C1NCCN1 [Iodoclonidine-p] | 51.3
6 | CC(C)NCC(O)c1ccc(O)c(O)c1 (stereo not drawn) [Isoproterenol,(+)] | > 10000
7 | CCN1CCc2nc(N)oc2CC1 [NSC_169743] | > 10000
8 | NCC(O)c1ccc(O)c(O)c1 (stereo not drawn) [Noradrenaline,(+)] | 5620
9 | Cc1cc(C(C)(C)C)c(O)c(C)c1CC1=NCCN1 [SMR000059324] | 35.5
10 | Brc1c(NC2=NCCN2)ccc2nccnc12 [UK 14,304] | 479
11 | Nc1cc(Cl)c(N=C2NCCN2)c(Cl)c1 [p-AMINOCLONIDINE] | 288
